Results on one molecule are retold here after ChEMBL document CHEMBL1147120, “Chemical constituents of malagasy Liverworts. 6. A myltaylane caffeate with nitric oxide inhibitory activity from Bazzania nitida” (J Nat Prod, 2007).

This assay deals with RAW. Nature of the assay: Inhibition of LPS-induced NO production in RAW 264.7 cells. As to conditions: Mus musculus. Format: functional, cell-based.

As to `C=C1C[C@]23C[C@H](OC(=O)/C=C/c4ccc(O)c(O)c4)[C@H]1[C@@]2(C)CCCC3(C)C`, the IC50 (in general, the midpoint of a concentration-inhibition curve) turned out to be 6.3 µM.
